Columns and labels:
Test in all cases: KINOMEscan competition binding
Settings in all cases: compound 10.0 µM
CLK4 (human) = CLK4 (human) (UniProt Q9HAZ1)
MAP4K1 (human) = MAP4K1 (human) (UniProt Q92918)
RPS6KA4 KD2 (human) = RPS6KA4 KD2 (human) (UniProt O75676)
MET (human) = MET (human) (UniProt P08581)
CDK11B (human) = CDK11B (human) (UniProt P21127)
MAP3K12 (human) = MAP3K12 (human) (UniProt Q12852)
BRAF (human) = BRAF (human) (UniProt P15056)
MAPK14 (human) = MAPK14 (human) (UniProt Q16539)
TAOK3 (human) = TAOK3 (human) (UniProt Q9H2K8)
PRPF4B (human) = PRPF4B (human) (UniProt Q13523)
GAK (human) = GAK (human) (UniProt O14976)
CAMKK1 (human) = CAMKK1 (human) (UniProt Q8N5S9)
MAPK3 (human) = MAPK3 (human) (UniProt P27361)
EPHA4 (human) = EPHA4 (human) (UniProt P54764)
PDPK1 (human) = PDPK1 (human) (UniProt O15530)
ACVRL1 (human) = ACVRL1 (human) (UniProt P37023)
ALK (human) = ALK (human) (UniProt Q9UM73)
PHKG2 (human) = PHKG2 (human) (UniProt P15735)
CDK5 (human) = CDK5 (human) (UniProt Q00535)
ITK (human) = ITK (human) (UniProt Q08881)
EPHA5 (human) = EPHA5 (human) (UniProt P54756)
YES1 (human) = YES1 (human) (UniProt P07947)
AXL (human) = AXL (human) (UniProt P30530)
STK11 (human) = STK11 (human) (UniProt Q15831)
[1] = tested on: KIT (human), P10721 [V559D/T670I]
TBK1 (human) = TBK1 (human) (UniProt Q9UHD2)
TNNI3K (human) = TNNI3K (human) (UniProt Q59H18)
PDGFRB (human) = PDGFRB (human) (UniProt P09619)
DCLK1 (human) = DCLK1 (human) (UniProt O15075)
FER (human) = FER (human) (UniProt P16591)
SIK3 (human) = SIK3 (human) (UniProt Q9Y2K2)
TLK1 (human) = TLK1 (human) (UniProt Q9UKI8)
CDK8 (human) = CDK8 (human) (UniProt P49336)
IRAK4 (human) = IRAK4 (human) (UniProt Q9NWZ3)
PIP5K1A (human) = PIP5K1A (human) (UniProt Q99755)
CDKL3 (human) = CDKL3 (human) (UniProt Q8IVW4)
EPHA1 (human) = EPHA1 (human) (UniProt P21709)
MAP4K3 (human) = MAP4K3 (human) (UniProt Q8IVH8)
ULK3 (human) = ULK3 (human) (UniProt Q6PHR2)
BMPR2 (human) = BMPR2 (human) (UniProt Q13873)
BMX (human) = BMX (human) (UniProt P51813)

GAK (human), sequence (O14976 whole entry, looked up): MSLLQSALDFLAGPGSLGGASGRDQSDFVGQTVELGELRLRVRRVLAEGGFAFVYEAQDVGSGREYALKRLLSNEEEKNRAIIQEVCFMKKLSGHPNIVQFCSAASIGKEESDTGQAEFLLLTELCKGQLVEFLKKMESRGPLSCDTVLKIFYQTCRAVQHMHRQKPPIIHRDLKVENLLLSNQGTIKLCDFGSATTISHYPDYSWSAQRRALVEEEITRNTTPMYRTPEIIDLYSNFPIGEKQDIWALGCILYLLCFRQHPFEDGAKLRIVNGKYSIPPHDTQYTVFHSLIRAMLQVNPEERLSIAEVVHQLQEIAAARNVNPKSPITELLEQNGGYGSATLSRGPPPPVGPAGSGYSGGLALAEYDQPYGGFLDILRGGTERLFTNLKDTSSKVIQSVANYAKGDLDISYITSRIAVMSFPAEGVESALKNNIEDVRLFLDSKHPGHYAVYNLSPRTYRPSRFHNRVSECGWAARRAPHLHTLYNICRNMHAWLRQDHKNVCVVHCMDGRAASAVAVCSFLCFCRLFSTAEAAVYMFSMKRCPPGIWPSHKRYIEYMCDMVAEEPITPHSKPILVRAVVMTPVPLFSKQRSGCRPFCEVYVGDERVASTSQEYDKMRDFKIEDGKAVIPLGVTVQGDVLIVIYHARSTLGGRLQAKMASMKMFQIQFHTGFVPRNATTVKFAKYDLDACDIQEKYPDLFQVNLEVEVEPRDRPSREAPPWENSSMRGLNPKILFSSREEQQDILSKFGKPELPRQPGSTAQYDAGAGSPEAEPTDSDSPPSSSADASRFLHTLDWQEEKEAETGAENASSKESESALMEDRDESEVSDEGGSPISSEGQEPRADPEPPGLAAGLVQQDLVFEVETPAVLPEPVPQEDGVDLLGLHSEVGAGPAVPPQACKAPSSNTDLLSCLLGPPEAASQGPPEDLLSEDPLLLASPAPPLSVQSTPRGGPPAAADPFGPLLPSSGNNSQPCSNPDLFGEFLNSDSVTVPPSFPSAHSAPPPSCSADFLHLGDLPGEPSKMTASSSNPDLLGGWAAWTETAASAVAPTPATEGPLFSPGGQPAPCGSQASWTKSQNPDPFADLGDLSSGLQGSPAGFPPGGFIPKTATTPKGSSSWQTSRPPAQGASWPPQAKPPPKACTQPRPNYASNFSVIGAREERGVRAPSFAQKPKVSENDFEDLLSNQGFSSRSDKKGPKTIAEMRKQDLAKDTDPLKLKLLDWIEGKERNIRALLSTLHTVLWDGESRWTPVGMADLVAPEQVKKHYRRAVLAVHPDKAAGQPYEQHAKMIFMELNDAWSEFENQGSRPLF
MAPK3 (human), sequence (P27361 whole entry, looked up): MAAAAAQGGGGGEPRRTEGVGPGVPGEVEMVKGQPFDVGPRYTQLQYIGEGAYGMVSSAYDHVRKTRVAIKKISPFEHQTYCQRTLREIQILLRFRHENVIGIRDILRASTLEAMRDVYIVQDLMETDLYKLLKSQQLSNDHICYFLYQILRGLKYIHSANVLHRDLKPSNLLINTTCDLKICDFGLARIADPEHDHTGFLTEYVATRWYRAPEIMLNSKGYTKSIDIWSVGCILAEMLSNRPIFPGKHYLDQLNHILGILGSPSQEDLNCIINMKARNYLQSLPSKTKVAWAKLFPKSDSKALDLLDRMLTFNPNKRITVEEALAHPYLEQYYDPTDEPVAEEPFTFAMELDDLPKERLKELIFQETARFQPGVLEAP
CAMKK1 (human), sequence (Q8N5S9 whole entry, looked up): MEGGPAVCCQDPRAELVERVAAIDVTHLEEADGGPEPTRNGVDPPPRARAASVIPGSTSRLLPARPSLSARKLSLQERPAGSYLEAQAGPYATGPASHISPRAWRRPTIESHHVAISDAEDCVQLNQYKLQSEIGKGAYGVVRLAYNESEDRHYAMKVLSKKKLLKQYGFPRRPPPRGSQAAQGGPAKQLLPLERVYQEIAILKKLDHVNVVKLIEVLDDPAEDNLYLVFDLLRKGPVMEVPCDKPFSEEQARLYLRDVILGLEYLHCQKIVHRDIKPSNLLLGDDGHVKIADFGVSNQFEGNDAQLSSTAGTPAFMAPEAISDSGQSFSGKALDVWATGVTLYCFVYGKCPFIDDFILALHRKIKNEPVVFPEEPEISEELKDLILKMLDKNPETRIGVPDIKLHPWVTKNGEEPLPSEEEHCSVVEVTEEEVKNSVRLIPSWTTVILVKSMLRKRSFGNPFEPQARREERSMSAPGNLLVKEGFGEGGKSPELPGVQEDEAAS
IRAK4 (human), sequence (Q9NWZ3 whole entry, looked up): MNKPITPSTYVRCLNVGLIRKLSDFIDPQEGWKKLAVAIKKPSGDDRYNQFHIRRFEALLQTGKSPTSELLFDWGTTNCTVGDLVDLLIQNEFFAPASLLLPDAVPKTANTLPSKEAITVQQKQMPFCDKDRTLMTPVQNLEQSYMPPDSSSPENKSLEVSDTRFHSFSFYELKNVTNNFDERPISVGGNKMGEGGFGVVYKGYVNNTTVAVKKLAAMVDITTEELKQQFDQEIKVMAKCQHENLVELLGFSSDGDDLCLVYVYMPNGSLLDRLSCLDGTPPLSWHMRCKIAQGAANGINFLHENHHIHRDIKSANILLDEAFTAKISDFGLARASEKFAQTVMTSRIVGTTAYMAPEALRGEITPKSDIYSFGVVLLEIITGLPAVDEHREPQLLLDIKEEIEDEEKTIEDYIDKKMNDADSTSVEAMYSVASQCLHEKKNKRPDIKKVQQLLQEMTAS
ULK3 (human), sequence (Q6PHR2 whole entry, looked up): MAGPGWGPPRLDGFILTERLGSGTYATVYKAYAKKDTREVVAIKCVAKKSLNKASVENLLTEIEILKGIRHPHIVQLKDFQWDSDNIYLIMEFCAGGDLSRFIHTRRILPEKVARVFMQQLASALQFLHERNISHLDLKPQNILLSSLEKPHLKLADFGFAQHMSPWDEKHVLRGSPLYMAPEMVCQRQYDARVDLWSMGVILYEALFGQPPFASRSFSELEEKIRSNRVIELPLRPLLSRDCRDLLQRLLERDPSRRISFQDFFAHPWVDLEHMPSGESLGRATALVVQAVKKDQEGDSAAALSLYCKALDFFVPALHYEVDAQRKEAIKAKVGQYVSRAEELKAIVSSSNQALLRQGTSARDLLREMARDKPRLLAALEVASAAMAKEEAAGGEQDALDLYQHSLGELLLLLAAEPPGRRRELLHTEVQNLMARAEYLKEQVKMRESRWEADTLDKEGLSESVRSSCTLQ
CDKL3 (human), sequence (Q8IVW4 whole entry, looked up): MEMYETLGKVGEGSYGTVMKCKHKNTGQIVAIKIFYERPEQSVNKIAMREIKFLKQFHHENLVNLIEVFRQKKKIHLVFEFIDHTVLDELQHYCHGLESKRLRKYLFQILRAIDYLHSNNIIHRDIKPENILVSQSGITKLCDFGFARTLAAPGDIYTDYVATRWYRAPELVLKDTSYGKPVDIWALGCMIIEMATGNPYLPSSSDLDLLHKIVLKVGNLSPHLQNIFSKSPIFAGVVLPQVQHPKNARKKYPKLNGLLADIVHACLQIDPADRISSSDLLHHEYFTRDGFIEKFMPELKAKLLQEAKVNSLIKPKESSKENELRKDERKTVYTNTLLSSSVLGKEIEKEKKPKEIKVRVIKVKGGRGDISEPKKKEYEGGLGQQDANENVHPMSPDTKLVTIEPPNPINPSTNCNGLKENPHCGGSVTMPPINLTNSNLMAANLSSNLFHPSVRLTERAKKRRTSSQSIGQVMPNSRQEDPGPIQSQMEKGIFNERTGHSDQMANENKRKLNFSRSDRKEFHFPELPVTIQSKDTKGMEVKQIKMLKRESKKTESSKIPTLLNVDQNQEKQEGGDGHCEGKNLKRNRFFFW
KIT (human), P10721 [V559D/T670I], sequence (P10721 whole entry V559D/T670I, looked up): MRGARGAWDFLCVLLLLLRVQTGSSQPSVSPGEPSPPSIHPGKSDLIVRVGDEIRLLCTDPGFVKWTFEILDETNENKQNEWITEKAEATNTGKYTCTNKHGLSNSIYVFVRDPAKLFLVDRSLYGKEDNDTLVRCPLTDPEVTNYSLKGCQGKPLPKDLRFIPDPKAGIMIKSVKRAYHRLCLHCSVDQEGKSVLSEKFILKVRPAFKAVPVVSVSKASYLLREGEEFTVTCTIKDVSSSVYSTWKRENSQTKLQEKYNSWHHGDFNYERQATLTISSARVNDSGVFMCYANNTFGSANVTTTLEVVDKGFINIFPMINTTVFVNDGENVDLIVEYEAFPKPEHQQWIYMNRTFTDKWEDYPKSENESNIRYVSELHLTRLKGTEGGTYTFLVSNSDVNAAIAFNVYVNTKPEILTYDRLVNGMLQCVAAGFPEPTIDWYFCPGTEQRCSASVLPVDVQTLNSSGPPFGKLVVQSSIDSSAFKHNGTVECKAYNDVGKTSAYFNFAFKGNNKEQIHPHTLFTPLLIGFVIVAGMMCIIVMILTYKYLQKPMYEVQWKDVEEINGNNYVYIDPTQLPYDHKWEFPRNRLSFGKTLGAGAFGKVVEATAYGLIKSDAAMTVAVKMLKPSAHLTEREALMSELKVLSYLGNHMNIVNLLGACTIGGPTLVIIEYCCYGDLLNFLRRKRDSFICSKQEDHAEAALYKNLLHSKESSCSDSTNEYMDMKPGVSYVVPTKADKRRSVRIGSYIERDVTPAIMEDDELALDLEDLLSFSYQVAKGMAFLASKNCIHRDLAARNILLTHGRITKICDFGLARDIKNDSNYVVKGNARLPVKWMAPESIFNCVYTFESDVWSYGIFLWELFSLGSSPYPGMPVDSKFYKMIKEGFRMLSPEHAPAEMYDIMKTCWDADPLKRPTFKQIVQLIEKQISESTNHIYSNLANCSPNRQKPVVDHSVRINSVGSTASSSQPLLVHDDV
CDK5 (human), sequence (Q00535 whole entry, looked up): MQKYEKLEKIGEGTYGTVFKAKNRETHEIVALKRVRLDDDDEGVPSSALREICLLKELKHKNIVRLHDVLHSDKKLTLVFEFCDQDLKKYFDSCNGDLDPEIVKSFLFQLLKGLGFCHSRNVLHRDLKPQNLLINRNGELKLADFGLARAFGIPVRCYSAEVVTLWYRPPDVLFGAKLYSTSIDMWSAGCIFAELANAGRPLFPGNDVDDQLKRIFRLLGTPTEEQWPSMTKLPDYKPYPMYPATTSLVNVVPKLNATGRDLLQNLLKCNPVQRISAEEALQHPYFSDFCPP

Q: With `CC(C)n1nc(-c2cc3cc(O)ccc3[nH]2)c2c(N)ncnc21` as the molecule, how does the kinase still bound, per cent of control (CLK4 (human)) read?
A: 9.7%

Q: What about the kinase still bound, per cent of control (MAP4K1 (human)) of the same molecule?
A: 33%

Q: And the kinase still bound, per cent of control (RPS6KA4 KD2 (human))?
A: 0%

Q: And the kinase still bound, per cent of control (MET (human))?
A: 73%

Q: What about the per cent of control (CDK11B (human)) of the same molecule?
A: 100%

Q: What about the per cent of control (MAP3K12 (human)) of the same molecule?
A: 84%

Q: And the kinase still bound, per cent of control (BRAF (human))?
A: 5.8%

Q: And the kinase still bound, per cent of control (MAPK14 (human))?
A: 95%

Q: And the kinase still bound, per cent of control (TAOK3 (human))?
A: 4.7%

Q: What about the kinase still bound, per cent of control (PRPF4B (human)) of the same molecule?
A: 90%

Q: And the kinase still bound, per cent of control (GAK (human))?
A: 6.2%

Q: And the kinase still bound, per cent of control (CAMKK1 (human))?
A: 49%

Q: What about the kinase still bound, per cent of control (MAPK3 (human)) of the same molecule?
A: 100%

Q: What about the kinase still bound, per cent of control (EPHA4 (human)) of the same molecule?
A: 36%

Q: And the kinase still bound, per cent of control (PDPK1 (human))?
A: 96%

Q: And the kinase still bound, per cent of control (ACVRL1 (human))?
A: 6.7%

Q: What about the kinase still bound, per cent of control (ALK (human)) of the same molecule?
A: 41%

Q: And the kinase still bound, per cent of control (PHKG2 (human))?
A: 12%

Q: What about the per cent of control (CDK5 (human)) of the same molecule?
A: 100%

Q: And the kinase still bound, per cent of control (ITK (human))?
A: 100%

Q: What about the kinase still bound, per cent of control (EPHA5 (human)) of the same molecule?
A: 55%

Q: What about the kinase still bound, per cent of control (YES1 (human)) of the same molecule?
A: 3.2%

Q: What about the kinase still bound, per cent of control (AXL (human)) of the same molecule?
A: 21%

Q: And the kinase still bound, per cent of control (STK11 (human))?
A: 79%

Q: And the kinase still bound, per cent of control [1]?
A: 30%

Q: What about the kinase still bound, per cent of control (TBK1 (human)) of the same molecule?
A: 84%

Q: What about the kinase still bound, per cent of control (TNNI3K (human)) of the same molecule?
A: 14%

Q: What about the kinase still bound, per cent of control (PDGFRB (human)) of the same molecule?
A: 0%

Q: What about the kinase still bound, per cent of control (DCLK1 (human)) of the same molecule?
A: 70%

Q: And the kinase still bound, per cent of control (FER (human))?
A: 64%

Q: And the kinase still bound, per cent of control (SIK3 (human))?
A: 20%

Q: What about the kinase still bound, per cent of control (TLK1 (human)) of the same molecule?
A: 75%

Q: What about the per cent of control (CDK8 (human)) of the same molecule?
A: 43%

Q: And the kinase still bound, per cent of control (IRAK4 (human))?
A: 44%

Q: What about the kinase still bound, per cent of control (PIP5K1A (human)) of the same molecule?
A: 62%

Q: And the per cent of control (CDKL3 (human))?
A: 100%

Q: What about the kinase still bound, per cent of control (EPHA1 (human)) of the same molecule?
A: 2.7%

Q: And the kinase still bound, per cent of control (MAP4K3 (human))?
A: 52%

Q: What about the kinase still bound, per cent of control (ULK3 (human)) of the same molecule?
A: 65%

Q: And the kinase still bound, per cent of control (BMPR2 (human))?
A: 0.1%

Q: Which results are given for `COc1ccc(-c2ccc3c(N4CCOCC4)nc(N4C[C@@H](C)O[C@@H](C)C4)nc3n2)cc1CO`?
A: kinase still bound, per cent of control (CLK4 (human)): 62%; kinase still bound, per cent of control (MAP4K1 (human)): 88%; kinase still bound, per cent of control (RPS6KA4 KD2 (human)): 95%; kinase still bound, per cent of control (MET (human)): 88%; per cent of control (CDK11B (human)): 100%; per cent of control (MAP3K12 (human)): 100%; kinase still bound, per cent of control (BRAF (human)): 81%; kinase still bound, per cent of control (MAPK14 (human)): 99%; kinase still bound, per cent of control (TAOK3 (human)): 90%; kinase still bound, per cent of control (BMX (human)): 86%; kinase still bound, per cent of control (PRPF4B (human)): 100%; kinase still bound, per cent of control (GAK (human)): 95%; kinase still bound, per cent of control (CAMKK1 (human)): 100%; kinase still bound, per cent of control (MAPK3 (human)): 100%; kinase still bound, per cent of control (EPHA4 (human)): 100%; kinase still bound, per cent of control (PDPK1 (human)): 100%; kinase still bound, per cent of control (ACVRL1 (human)): 100%; kinase still bound, per cent of control (ALK (human)): 100%; kinase still bound, per cent of control (PHKG2 (human)): 77%; per cent of control (CDK5 (human)): 100%; kinase still bound, per cent of control (ITK (human)): 88%; kinase still bound, per cent of control (EPHA5 (human)): 94%; kinase still bound, per cent of control (YES1 (human)): 100%; kinase still bound, per cent of control (AXL (human)): 100%; kinase still bound, per cent of control (STK11 (human)): 95%; kinase still bound, per cent of control [1]: 80%; kinase still bound, per cent of control (TBK1 (human)): 100%; kinase still bound, per cent of control (TNNI3K (human)): 100%; kinase still bound, per cent of control (PDGFRB (human)): 95%; kinase still bound, per cent of control (DCLK1 (human)): 100%; kinase still bound, per cent of control (FER (human)): 100%; kinase still bound, per cent of control (SIK3 (human)): 97%; kinase still bound, per cent of control (TLK1 (human)): 94%; per cent of control (CDK8 (human)): 100%; kinase still bound, per cent of control (IRAK4 (human)): 99%; kinase still bound, per cent of control (PIP5K1A (human)): 97%; per cent of control (CDKL3 (human)): 90%; kinase still bound, per cent of control (EPHA1 (human)): 96%; kinase still bound, per cent of control (MAP4K3 (human)): 85%; kinase still bound, per cent of control (ULK3 (human)): 100%; kinase still bound, per cent of control (BMPR2 (human)): 79%

— the kinase profiling compilation of Christmann-Franck et al. (2016)
